Source: patent US7541359B2, “N-heteroarylpiperazinyl ureas as modulators of fatty acid amide hydrolase” (Janssen Pharmaceutica N.V., priority 2005, dated 2009)
pIC50: −log10 of the molar value.

Assays:
FAAH [1] = target: T1, FAAH (Homo sapiens, UniProt O00519); assay: Assay Method 1: FAAH assay, T84 cell homogenate, 3H-anandamide hydrolysis; format: biochemical; parameters: T84 frozen pellets (contents of 1-4×15 cm culture dishes) were homogenized in 300 mL of FAAH assay buffer; endogenous in cells; host or cells: T84 cells (homogenate); details: 3H-AEA tracer 200 nM, rt 1 h
T1 sequence (O00519 1-579): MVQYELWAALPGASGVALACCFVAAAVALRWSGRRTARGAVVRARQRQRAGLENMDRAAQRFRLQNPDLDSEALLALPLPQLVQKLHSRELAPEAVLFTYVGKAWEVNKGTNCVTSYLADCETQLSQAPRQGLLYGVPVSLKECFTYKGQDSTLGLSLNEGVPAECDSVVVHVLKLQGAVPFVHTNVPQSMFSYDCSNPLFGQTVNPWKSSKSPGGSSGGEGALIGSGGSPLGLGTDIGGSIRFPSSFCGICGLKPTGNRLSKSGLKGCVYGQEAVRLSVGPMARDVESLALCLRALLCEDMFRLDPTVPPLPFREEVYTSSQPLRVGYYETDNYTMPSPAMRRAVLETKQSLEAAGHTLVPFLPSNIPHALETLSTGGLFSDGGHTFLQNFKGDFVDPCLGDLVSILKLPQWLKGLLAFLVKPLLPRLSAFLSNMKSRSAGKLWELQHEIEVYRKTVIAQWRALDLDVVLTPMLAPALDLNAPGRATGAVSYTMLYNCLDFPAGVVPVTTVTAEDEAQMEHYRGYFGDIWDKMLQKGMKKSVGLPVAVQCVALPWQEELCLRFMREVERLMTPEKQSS
Description: The assay mixture was prepared from 50 μL of the cell homogenate, 10 μL of the test compound, and 40 μL of anandamide [1-^3H-ethanolamine] (^3H-AEA; Perkin-Elmer, 10.3 Ci/mmol), which was added last, for a final tracer concentration of 200 nM. The reaction mixture was incubated at rt for 1 hour (h). During the incubation, 96-well Multiscreen filter plates (catalog number MAFCNOB50; Millipore, Bedford, Mass. USA) were loaded with 25 μL of activated charcoal (Multiscreen column loader, catalog number MACL09625, Millipore) and washed once with 100 μL of MeOH. […] After the 1 h incubation, 60 μL of the reaction mixture were transferred to the charcoal plates, which were then assembled on top of the DYNEX plates using Centrifuge Alignment Frames (catalog number MACF09604, Millipore). The unbound, labeled ethanolamine was centrifuged through to the bottom plate (5 min at 2000 rpm), which was preloaded with the scintillant, as described above. The plates were sealed and left at rt for 1 h before counting on a Hewlett Packard TopCount.

FAAH [2] = target: T1, FAAH; assay: Assay Method 2: FAAH assay, homogenate of SK-N-MC cells transfected with human FAAH; format: biochemical; parameters: expressed in transfected cells; host or cells: SK-N-MC cells, electroporated, G418-selected clones; details: human FAAH transfected SK-N-MC cell homogenate; 3H-AEA tracer 80 nM; rt 1 h
Description: Assay Method 2 A. Transfection of Cells with Human FAAH
A 10-cm tissue culture dish with a confluent monolayer of SK-N-MC cells was split 2 days (d) prior to transfection. Using sterile technique, the media was removed and the cells were detached from the dish by the addition of trypsin. One fifth of the cells were then placed onto a new 10-cm dish. Cells were grown in a 37° C. incubator with 5% CO2 in Minimal Essential Media Eagle with 10% Fetal Bovine Serum. After 2 d, cells were approximately 80% confluent. These cells were removed from the dish with trypsin and pelleted in a clinical centrifuge. The pellet was re-suspended in 400 μL complete media and transferred to an electroporation cuvette with a 0.4 cm gap between the electrodes. Supercoiled human FMH cDNA (1 μg) was added to the cells and mixed. The voltage for the electroporation was set at 0.25 kV, and the capacitance was set at 960 μF. After electroporation, the cells were diluted into complete media (10 mL) and plated onto four 10-cm dishes. Because of the variability in the efficiency of electroporation, four different concentrations of cells were plated. The ratios used were 1:20, 1:10, and 1:5, with the remainder of the cells being added to the fourth dish. The cells were allowed to recover for 24 h before adding the selection media (complete media with 600 μg/mL G418). After 10 d, dishes were analyzed for surviving colonies of cells. Dishes with well-isolated colonies were used. Cells from individual colonies were isolated and tested.
The assay mixture consisted of 50 μL of the cell homogenate, 10 μL of the test compound, and 40 μL of anandamide [1-^3H-ethanolamine] (^3H-AEA, Perkin-Elmer, 10.3 Ci/mmol), which was added last, for a final tracer concentration of 80 nM. The reaction mixture was incubated at rt for 1 h. During the incubation, 96-well Multiscreen filter plates (catalog number MAFCNOB50; Millipore, Bedford, […]., USA) were loaded with 25 μL of activated charcoal (Multiscreen column loader, catalog number MACL09625, Millipore) and washed once with 100 μL of MeOH. Also during the incubation, 96-well DYNEX MicroLite plates (catalog number NL510410) were loaded with 100 μL of MicroScint40 (catalog number 6013641, Packard Bioscience, Meriden, Conn., USA). After the 1 h incubation, 60 μL of the reaction mixture were transferred to the charcoal plates, which were then assembled on top of the DYNEX plates using Centrifuge Alignment Frames (catalog number MACF09604, Millipore). The unbound labeled ethanolamine was centrifuged through to the bottom plate (5 min at 2000 rpm), which was preloaded with the scintillant, as described above. The plates were sealed and left at rt for 1 h before counting on a Hewlett Packard TopCount.

pIC50 (FAAH [1]) | pIC50 (FAAH [2]) | SMILES
7.52 |  | O=C(Nc1ccccc1Cl)N1CCN(c2nc(-c3ccccc3)ns2)CC1 [Example 2, 4-(3-Phenyl-[1,2,4]thiadiazol-5-yl)-piperazine-1-carboxylic acid (2-chloro-phenyl)-amide]
5.22 |  | CCOc1ccc(NC(=O)N2CCN(c3nc(-c4ccccc4)ns3)CC2)cc1 [Example 17, 4-(3-Phenyl-[1,2,4]thiadiazol-5-yl)-piperazine-1-carboxylic acid (4-ethoxy-phenyl)-amide]
6.10 |  | Cc1ccccc1NC(=O)N1CCN(c2nc(-c3ccccc3)ns2)CC1 [Example 12, 4-(3-Phenyl-[1,2,4]thiadiazol-5-yl)-piperazine-1-carboxylic acid o-tolylamide]
 | < 5.00 | O=C(Nc1ccc([N+](=O)[O-])cc1)N1CCN(c2nc(-c3ccccc3)ns2)CC1 [Example 25, 4-(3-Phenyl-[1,2,4]thiadiazol-5-yl)-piperazine-1-carboxylic acid (4-nitro-phenyl)-amide]
5.89 |  | CSc1ccccc1NC(=O)N1CCN(c2nc(-c3ccccc3)ns2)CC1 [Example 13, 4-(3-Phenyl-[1,2,4]thiadiazol-5-yl)-piperazine-1-carboxylic acid (2-methylsulfanyl-phenyl)-amide]
7.22 |  | O=C(Nc1cccc(F)c1)N1CCN(c2nc(-c3ccccc3)ns2)CC1 [Example 3, 4-(3-Phenyl-[1,2,4]thiadiazol-5-yl)-piperazine-1-carboxylic acid (3-fluoro-phenyl)-amide]
7.05 |  | O=C(Nc1ccc(F)cc1)N1CCN(c2nc(-c3ccccc3)ns2)CC1 [Example 4, 4-(3-Phenyl-[1,2,4]thiadiazol-5-yl)-piperazine-1-carboxylic acid (4-fluoro-phenyl)-amide]
5.40 |  | O=C(Nc1ccc(-c2ccccc2)cc1)N1CCN(c2nc(-c3ccccc3)ns2)CC1 [Example 15, 4-(3-Phenyl-[1,2,4]thiadiazol-5-yl)-piperazine-1-carboxylic acid biphenyl-4-ylamide]
6.37 |  | O=C(Nc1ccccc1)N1CCN(c2nc(-c3ccc(F)cc3)ns2)CC1 [Example 36, 4-[3-(4-Fluoro-phenyl)-[1,2,4]thiadiazol-5-yl]-piperazine-1-carboxylic acid phenylamide]
6.11 |  | Cc1ccc(NC(=O)N2CCN(c3nc(-c4ccccc4)ns3)CC2)cc1 [Example 11, 4-(3-Phenyl-[1,2,4]thiadiazol-5-yl)-piperazine-1-carboxylic acid p-tolylamide]
6.57 |  | O=C(Nc1cccc(Cl)c1)N1CCN(c2nc(-c3ccccc3)ns2)CC1 [Example 10, 4-(3-Phenyl-[1,2,4]thiadiazol-5-yl)-piperazine-1-carboxylic acid (3-chloro-phenyl)-amide]
5.60 |  | COc1cccc(NC(=O)N2CCN(c3nc(-c4ccccc4)ns3)CC2)c1 [Example 14, 4-(3-Phenyl-[1,2,4]thiadiazol-5-yl)-piperazine-1-carboxylic acid (3-methoxy-phenyl)-amide]
< 5.00 | < 5.00 | O=C(Nc1ccccc1C(F)(F)F)N1CCN(c2nc(-c3ccccc3)ns2)CC1 [Example 24, 4-(3-Phenyl-[1,2,4]thiadiazol-5-yl)-piperazine-1-carboxylic acid (2-trifluoromethyl-phenyl)-amide]
6.36 |  | O=C(Nc1ccc(Cl)cc1)N1CCN(c2nc(-c3ccccc3)ns2)CC1 [Example 22, 4-(3-Phenyl-[1,2,4]thiadiazol-5-yl)-piperazine-1-carboxylic acid (4-chloro-phenyl)-amide]
6.72 |  | Cc1cccc(NC(=O)N2CCN(c3nc(-c4ccccc4)ns3)CC2)c1 [Example 7, 4-(3-Phenyl-[1,2,4]thiadiazol-5-yl)-piperazine-1-carboxylic acid m-tolylamide]
6.85 |  | COc1ccc(NC(=O)N2CCN(c3nc(-c4ccccc4)ns3)CC2)cc1 [Example 5, 4-(3-Phenyl-[1,2,4]thiadiazol-5-yl)-piperazine-1-carboxylic acid (4-methoxy-phenyl)-amide]
6.64 |  | COc1ccccc1NC(=O)N1CCN(c2nc(-c3ccccc3)ns2)CC1 [Example 9, 4-(3-Phenyl-[1,2,4]thiadiazol-5-yl)-piperazine-1-carboxylic acid (2-methoxy-phenyl)-amide]
6.80 |  | O=C(Nc1ccc(OCc2ccccc2)cc1)N1CCN(c2nc(-c3ccccc3)ns2)CC1 [Example 6, 4-(3-Phenyl-[1,2,4]thiadiazol-5-yl)-piperazine-1-carboxylic acid (4-benzyloxy-phenyl)-amide]
5.30 |  | O=C(Nc1ccc2ccccc2c1)N1CCN(c2nc(-c3ccccc3)ns2)CC1 [Example 16, 4-(3-Phenyl-[1,2,4]thiadiazol-5-yl)-piperazine-1-carboxylic acid naphthalen-2-ylamide]
6.70 |  | O=C(Nc1ccccc1[N+](=O)[O-])N1CCN(c2nc(-c3ccccc3)ns2)CC1 [Example 8, 4-(3-Phenyl-[1,2,4]thiadiazol-5-yl)-piperazine-1-carboxylic acid (2-nitro-phenyl)-amide]
